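Assay format: 96-well plates, 48-hour exposure. GI50 is the concentration that inhibits growth by half.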 Activity calls are given as the source filed them. Cut-off read from the data, not from the text of the source: active = GI50 up to about 1.1 µM and inactive = higher.
Key:
Experiment in all cases: growth of human tumour cells (NCI), 48 h
[1] = tested on: 786-0
[2] = tested on: A498
[3] = tested on: A549
[4] = tested on: ACHN
[5] = tested on: CAKI-1
[6] = tested on: CCRF-CEM
[7] = tested on: DU-145
[8] = tested on: EKVX
[9] = tested on: HCC 2998
[10] = tested on: HCT-116
[11] = tested on: HCT-15
[12] = tested on: HL-60
[13] = tested on: HOP-62
[14] = tested on: HOP-92
[15] = tested on: HT-29
[16] = tested on: Hs-578T
[17] = tested on: IGROV-1
[18] = tested on: K562
[19] = tested on: KM12
[20] = tested on: LOX IMVI
[21] = tested on: M14
[22] = tested on: MCF7
[23] = tested on: MDA-MB-231
[24] = tested on: MDA-MB-435
[25] = tested on: MDA-N
[26] = tested on: MOLT-4
[27] = tested on: Malme-3M
[28] = tested on: NCI-H226
[29] = tested on: NCI-H23
[30] = tested on: NCI-H460
[31] = tested on: NCI-H522
[32] = tested on: NCI/ADR-RES
[33] = tested on: OVCAR-3
[34] = tested on: OVCAR-4
[35] = tested on: OVCAR-5
[36] = tested on: OVCAR-8
[37] = tested on: RPMI-8226
[38] = tested on: RXF 393
[39] = tested on: SF-268
[40] = tested on: SF-295
[41] = tested on: SF-539
[42] = tested on: SK-MEL-28
[43] = tested on: SN12C
[44] = tested on: SNB-19
[45] = tested on: SNB-75
[46] = tested on: SR
[47] = tested on: SW-620
[48] = tested on: T47D
[49] = tested on: TK-10
[50] = tested on: U-251
[51] = tested on: UACC-257
[52] = tested on: UACC-62
[53] = tested on: UO-31
[54] = tested on: COLO 205
[55] = tested on: PC-3
[56] = tested on: SK-MEL-2
[57] = tested on: SK-MEL-5
[58] = tested on: SK-OV-3

In the case of COC(=O)c1c(C)cccc1C1CN=NC12Cc1ccc(C)c(C)c1C2=O (configuration not stated), the GI50 [1] is reported as 51.3 µM (inactive), the GI50 [2] is reported as 36.3 µM (inactive) and the GI50 [3] is reported as 18.2 µM (inactive). The GI50 [4] was 27.2 µM (inactive), the GI50 [5] was > 100 µM (inactive) and the GI50 [6] was 24.3 µM (inactive). The GI50 [7] was 54.6 µM (inactive), the GI50 [8] was 12.2 µM (inactive) and the GI50 [9] was 23.5 µM (inactive). The GI50 [10] was 14.8 µM (inactive), the GI50 [11] was 23.2 µM and the GI50 [12] was 8.59 µM (inactive). The GI50 [13] was 77.1 µM (inactive), the GI50 [14] was 28.6 µM (inactive) and the GI50 [15] was 25.7 µM (inactive). For the same compound, the GI50 [16] was 37.7 µM (inactive), the GI50 [17] was 46.2 µM (inactive) and the GI50 [18] was 18.2 µM (inactive). The GI50 [19] was 34.3 µM (inactive), the GI50 [20] was 3.21 µM (inactive) and the GI50 [21] was 30.5 µM (inactive). For the same compound, the GI50 [22] was 24.4 µM (inactive), the GI50 [23] was 39.4 µM (inactive) and the GI50 [24] was 31.4 µM (inactive). The GI50 [25] was 45.2 µM (inactive), the GI50 [26] was 12.2 µM (inactive) and the GI50 [27] was 28.6 µM (inactive). For the same compound, the GI50 [28] was 44.6 µM (inactive), the GI50 [29] was 46.5 µM (inactive) and the GI50 [30] was 22.8 µM (inactive). The GI50 [31] was 12.9 µM (inactive), the GI50 [32] was 15.2 µM (inactive) and the GI50 [33] was 32.4 µM (inactive). The GI50 [34] was 24.9 µM (inactive), the GI50 [35] was > 100 µM (inactive) and the GI50 [36] was 27.1 µM (inactive). For the same compound, the GI50 [37] was 9.84 µM (inactive), the GI50 [38] was 20.9 µM (inactive) and the GI50 [39] was 49.4 µM (inactive). The GI50 [40] was 42.7 µM (inactive), the GI50 [41] was 68.9 µM (inactive) and the GI50 [42] was > 100 µM (inactive). The GI50 [43] was 50 µM (inactive), the GI50 [44] was 50.9 µM (inactive) and the GI50 [45] was 96.4 µM (inactive). The GI50 [46] was 16.6 µM (inactive), the GI50 [47] was 33.4 µM (inactive) and the GI50 [48] was 3.2 µM (inactive). The GI50 [49] was > 100 µM (inactive), the GI50 [50] was 35.2 µM (inactive) and the GI50 [51] was 26.2 µM (inactive). For the same compound, the GI50 [52] was 15.3 µM (inactive) and the GI50 [53] was 42.4 µM (inactive).
In the case of CSc1cc(Cl)c(C)cc1S(=O)(=O)NC(=O)NNc1ccc(Cl)cc1, the GI50 [1] is reported as > 100 µM (inactive), the GI50 [2] is reported as > 100 µM (inactive) and the GI50 [3] is reported as > 100 µM (inactive). The GI50 [4] was 47.3 µM (inactive), the GI50 [5] was 94.6 µM (inactive) and the GI50 [54] was > 100 µM (inactive). The GI50 [7] was > 100 µM (inactive), the GI50 [8] was > 100 µM (inactive) and the GI50 [9] was 36.2 µM (inactive). For the same compound, the GI50 [10] was > 100 µM (inactive), the GI50 [11] was > 100 µM and the GI50 [13] was > 100 µM (inactive). For the same compound, the GI50 [15] was > 100 µM (inactive), the GI50 [16] was 34.1 µM (inactive) and the GI50 [17] was > 100 µM (inactive). The GI50 [18] was > 100 µM (inactive), the GI50 [19] was > 100 µM (inactive) and the GI50 [20] was > 100 µM (inactive). The GI50 [21] was > 100 µM (inactive), the GI50 [22] was > 100 µM (inactive) and the GI50 [23] was > 100 µM (inactive). The GI50 [24] was > 100 µM (inactive), the GI50 [25] was > 100 µM (inactive) and the GI50 [26] was 46.6 µM (inactive). For the same compound, the GI50 [27] was > 100 µM (inactive), the GI50 [28] was 56 µM (inactive) and the GI50 [30] was > 100 µM (inactive). For the same compound, the GI50 [31] was 70.3 µM (inactive), the GI50 [32] was > 100 µM (inactive) and the GI50 [33] was > 100 µM (inactive). The GI50 [34] was > 100 µM (inactive), the GI50 [35] was > 100 µM (inactive) and the GI50 [36] was > 100 µM (inactive). For the same compound, the GI50 [55] was 80.5 µM (inactive), the GI50 [38] was 99.1 µM (inactive) and the GI50 [39] was > 100 µM (inactive). The GI50 [40] was > 100 µM (inactive), the GI50 [41] was 40.1 µM (inactive) and the GI50 [42] was > 100 µM (inactive). For the same compound, the GI50 [56] was > 100 µM (inactive), the GI50 [57] was 69.5 µM (inactive) and the GI50 [58] was > 100 µM (inactive). For the same compound, the GI50 [43] was > 100 µM (inactive), the GI50 [44] was > 100 µM (inactive) and the GI50 [45] was > 100 µM (inactive). For the same compound, the GI50 [46] was 70 µM (inactive), the GI50 [47] was > 100 µM (inactive) and the GI50 [48] was > 100 µM (inactive). The GI50 [50] was > 100 µM (inactive).

From ChEMBL document CHEMBL1201862, “PubChem BioAssay data set” (2004)
